Assay results: patent US5502035A, “N-terminus modified analogs of LHRH” (Tap Holdings Inc., priority 1994, dated 1996)
Non-standard residues stand in square brackets, D forms with d. Residues, ends and D or L forms follow the SMILES beside them. *: point of attachment. dPhe(4-Cl) = N[C@H](Cc1ccc(Cl)cc1)C(=O)O; Lys(iPr) = CC(C)NCCCC[C@H](N)C(=O)O; NMeY = CN[C@@H](Cc1ccc(O)cc1)C(=O)O; d3Pal = N[C@H](Cc1cccnc1)C(=O)O; Nicotinoyl = O=C(c1cccnc1)*; X1 = O=C([C@@H]1CCCO1)*; Sar = CNCC(=O)O

Biological target: T1, LHRH (Rattus norvegicus, UniProt P30969)
T1 construct: endogenous in cells; host or cells: rat pituitary cells (own knowledge of the cited Haviv 1989 method)
T1 sequence (P30969 1-327): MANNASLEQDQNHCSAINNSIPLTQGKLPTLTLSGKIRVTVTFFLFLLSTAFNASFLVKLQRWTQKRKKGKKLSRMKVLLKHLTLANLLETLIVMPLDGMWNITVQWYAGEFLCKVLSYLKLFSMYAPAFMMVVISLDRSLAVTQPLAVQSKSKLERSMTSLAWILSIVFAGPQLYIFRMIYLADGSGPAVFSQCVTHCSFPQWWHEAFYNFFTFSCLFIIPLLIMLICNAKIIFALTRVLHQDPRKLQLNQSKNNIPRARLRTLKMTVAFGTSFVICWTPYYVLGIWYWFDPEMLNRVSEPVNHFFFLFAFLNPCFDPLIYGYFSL
Assay: in vitro test for LHRH antagonist potency (pA2)
Format: cell-based
Conditions: negative logarithm of the antagonist concentration required to shift the response curve produced by the agonist leuprolide to two-fold higher concentration
Procedure, shortened: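 Antagonism read against the agonist leuprolide on rat LHRH receptor; value is pA2, the −log of antagonist concentration that doubles the agonist concentration needed for the same response.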

| Structure (SMILES) | Kb [µM] |
| --- | --- |
| CC(C)C[C@H](NC(=O)[C@@H](CCCCNC(=O)c1cccnc1)NC(=O)[C@H](Cc1ccc(O)cc1)N(C)C(=O)[C@H](CO)NC(=O)[C@@H](Cc1cccnc1)NC(=O)[C@@H](Cc1ccc(Cl)cc1)NC(=O)[C@@H](C)NC(=O)CNC(=O)[C@@H]1CCCO1)C(=O)N[C@@H](CCCCNC(C)C)C(=O)N1CCC[C@H]1C(=O)N[C@H](C)C(N)=O [Example 100, N (S)-2-Tetrahydrofuroyl-Gly-DAla-D4ClPhe-D3Pal-Ser-NMeTyr-DLys(Nic)-Leu-Lys(Isp)-Pro-DAlaNH2] (X1-G[dA][dPhe(4-Cl)][d3Pal]S[NMeY][dK](Nicotinoyl)L[Lys(iPr)]P[dA]-NH2) | 0.0219 |
| CC(C)C[C@H](NC(=O)[C@@H](CCCCNC(=O)c1cccnc1)NC(=O)[C@H](Cc1ccc(O)cc1)N(C)C(=O)[C@H](CO)NC(=O)[C@@H](Cc1cccnc1)NC(=O)[C@@H](Cc1ccc(Cl)cc1)NC(=O)CN(C)C(=O)CNC(=O)[C@@H]1CCCO1)C(=O)N[C@@H](CCCCNC(C)C)C(=O)N1CCC[C@H]1C(=O)N[C@H](C)C(N)=O [Example 101, N (S)-2-Tetrahydrofuroyl-Gly-Sar-D4ClPhe-D3Pal-Ser-NMeTyr-DLys(Nic)-Leu-Lys(Isp)-Pro-DAlaNH2] (X1-G[Sar][dPhe(4-Cl)][d3Pal]S[NMeY][dK](Nicotinoyl)L[Lys(iPr)]P[dA]-NH2) | 0.0427 |
